Entries after “also recorded” stand apart in the source; their conditions may differ. Read-outs that look alike come from different tables or passages of the source.
How the values were obtained:
HIV-1 IIIB strain [1] = experiment: HIV-1 IIIB replication in HeLa indicator cells (AV-Finder-HIV assay), no pre-medication; type: cell-based; details: for efficacy in reducing HIV-1 IIIB replication compared to AZT, ddI or 3TC: human cells
HIV-1 IIIB strain [2] = experiment: HIV-1 IIIB replication in HeLa cells, 48 hours pre-medication; type: cell-based; details: 48 hours pretreatment, read-out: IC50 of inhibition of HIV replication
[3] = system: multi-drug resistant HIV MDR-769 strain; experiment: HIV MDR 769 strain replication in HeLa cells, without pre-medication; type: cell-based
HeLa cells = experiment: MTT cytotoxicity assay after the HIV replication protocol; type: cell-based, human; details: MTT cytotoxicity assay
HIV-1 IIIB strain [4] = experiment: HIV-1 IIIB replication in HeLa cells, 24 hours pre-medication; type: cell-based
[5] = system: Y1 mouse adrenal tumor cells; experiment: dbcAMP-induced 20á-hydroxyprogesterone synthesis in Y1 cells; type: cell-based
Method: Culture media were then changed and cells were stimulated with 1 mM dbcAMP and the treatment for 24 to 48 hours. […] The synthesis of 20 —OH progesterone and progesterone in Y1 and MA-10 cell media respectively were measured by RIA (Brown et al., 1992). H295R human adrenal tumor cells were seeded in 48-well plates at 10^5 cells/well and incubated for 24 hours. […] At the end of the incubation time period, cells were treated with 1 mM dbcAMP for 48 hours. Cortisol levels in the media were determined by radioimmunoassay as previously described (Amri et al., 1996).

[6] = no pre-medication, concentrations up to 1 μM

**Q.** Which “inhibition of HIV-1 IIIB viral replication reached” value (HIV-1 IIIB strain [1]; no pre-medication, maximal inhibition reached (maximal concentrations)) does the source give for `Nc1ccn([C@@H]2CS[C@H](CO)O2)c(=O)n1` [3TC] here?
**A.** 90%

**Q.** `Cc1cn([C@H]2C[C@H](N=[N+]=[N-])[C@@H](CO)O2)c(=O)[nH]c1=O` [AZT] was tested. Which IC50 (HIV-1 IIIB strain [2]) did it give?
**A.** 30 nM

**Q.** What about the “effect on HIV MDR 769 strain replication” value [3] of the same molecule?
**A.** not effective; also recorded: ineffective

**Q.** What about the IC50 (HeLa cells) of the same molecule?
**A.** 161 µM

**Q.** And the “inhibition of the replication” value (HIV-1 IIIB strain [4]; at 30 pM)?
**A.** < 30%

**Q.** Which results are given for `CC1CN(C(=O)C(Cc2c[nH]c3ccccc23)NC(=O)c2ccc([N+](=O)[O-])cc2)CCN1C(=O)C1CC1` (stereo not drawn) [SP010, N-[2-(4-cyclopropanecarbonyl-3-methyl-piperazin-1-yl)-1-(1H-indol-3-yl-methyl)-2-oxo-ethyl]-4-nitro-benzamide]?
**A.** IC50 (HIV-1 IIIB strain [2]; Human immunodeficiency virus 1, IIIB, HeLa): 0.01 nM; effect on dbcAMP-induced 20á-hydroxyprogesterone production ([5]; Y1 cells): decreased in a dose-dependent manner; potency on cAMP-corticosteroid formation compared to procaine ([5]; even at a concentration as low as 1 μM): as potent as procaine; effect on HIV MDR 769 strain replication [3]: effectively blocked; maximal inhibition of MDR HIV strain replication [3]: 50%; inhibition at 0.01 µM (HIV-1 IIIB strain [1]; Human immunodeficiency virus 1, IIIB, HeLa, no pre-medication, at 0.01 μM, read-out: strongest inhibition of viral replication): 55.6 ± 2.12%; efficacy in reducing HIV-1 IIIB replication compared to AZT, ddI or 3TC (HIV-1 IIIB strain [1]): efficacy higher than AZT, ddI or 3TC; inhibition of viral replication (HIV-1 IIIB strain [1]; [6]): 40%; potency compared to ddI (HIV-1 IIIB strain [1]; [6]): more potent that ddI; efficacy in inhibiting viral replication compared to ddI (HIV-1 IIIB strain [1]; within the range of 1 nM to 1 μM): higher efficacy than ddI; concentration at the peak of the inhibitory activity (HIV-1 IIIB strain [4]): 0.03 nM

**Q.** How did the “effect on HIV MDR 769 strain replication” value [3] turn out when `CCN(CC)CCNC(=O)c1ccc(N)cc1` [SP100, procainamide] was run?
**A.** effectively blocked

**Q.** And the “efficacy in reducing HIV-1 IIIB replication compared to AZT, ddI or 3TC” value (HIV-1 IIIB strain [1])?
**A.** efficacy higher than AZT, ddI or 3TC

**Q.** What about the “efficacy on viral replication compared to AZT” value (HIV-1 IIIB strain [4]) of the same molecule?
**A.** effective but at the same extent as AZT

**Q.** Which IC50 (HeLa cells) does the source give for `O=c1[nH]cnc2c1ncn2[C@H]1CC[C@@H](CO)O1` [ddI] here?
**A.** 89 µM

**Q.** What about the “strongest inhibition of viral replication” value (HIV-1 IIIB strain [1]; no pre-medication, at 0.01 μM) of the same molecule?
**A.** 26.37±26.11%

Reference: patent US20060194814A1, “Benzamide compounds” (priority 2003, published 2006)
